ChEMBL document CHEMBL1143353, “Pyrazolo[1,5-a]-1,3,5-triazine as a purine bioisostere: access to potent cyclin-dependent kinase inhibitor (R)-roscovitine analogue” (J Med Chem, 2009)

Assays:
[1] = target: Cyclin-dependent kinase 5/CDK5 activator 1 (Homo sapiens, UniProt Q00535)
Description: Inhibition of human recombinant CDK5/p25 expressed in Escherichia coli

[2] = target: Cyclin-dependent kinase 7/ cyclin H (Homo sapiens, UniProt P50613); assay: Inhibition of human recombinant CDK7/cyclin H expressed in baculovirus-infected insect cells
SH-SY5Y = assay: Antiproliferative activity against human SH-SY5Y cells after 48 hrs by MTS reduction assay; type: functional, cell-based
HEK293 = assay: Antiproliferative activity against human HEK293 cells after 48 hrs by MTS reduction assay; type: cell-based; details: HEK293, 48 h
SN12C = assay: Antiproliferative activity against human SN12C cells after 72 hrs by ViaLight assay; type: functional
Raji = assay: Antiproliferative activity against human Raji cells after 72 hrs by ViaLight assay; type: functional, cell-based
MOLT-4 = assay: cells; details: Homo sapiens, MOLT-4, 72 h
Description: Antiproliferative activity against human MOLT4 cells after 72 hrs by ViaLight assay

SR = assay: cells; details: Homo sapiens, 72 h
Description: Antiproliferative activity against human SR cells after 72 hrs by ViaLight assay

A549 = assay: cells; details: Homo sapiens, A549, 72 h
Description: Antiproliferative activity against human A549 cells after 72 hrs by ViaLight assay

EKVX = assay: cells; details: Homo sapiens, 72 h
Description: Antiproliferative activity against human EKVX cells after 72 hrs by ViaLight assay

HOP-92 = assay: cells; details: Homo sapiens, HOP-92, 72 h
Description: Antiproliferative activity against human HOP92 cells after 72 hrs by ViaLight assay

NCI-H226 = assay: cells; details: Homo sapiens, NCI-H226, 72 h
Description: Antiproliferative activity against human NCI-H226 cells after 72 hrs by ViaLight assay

NCI-H322M = assay: cells; details: Homo sapiens, 72 h
Description: Antiproliferative activity against human NCI-H322M cells after 72 hrs by ViaLight assay

HCC 2998 = assay: cells; details: Homo sapiens, HCC 2998, 72 h
Description: Antiproliferative activity against human HCC2998 cells after 72 hrs by ViaLight assay

HCT-116 = assay: cells; details: Homo sapiens, HCT-116, 72 h
Description: Antiproliferative activity against human HCT116 cells after 72 hrs by ViaLight assay

KM12 = assay: cells; details: Homo sapiens, KM12, 72 h
Description: Antiproliferative activity against human KM12 cells after 72 hrs by ViaLight assay

SF-295 = assay: cells; details: Homo sapiens, SF-295, 72 h
Description: Antiproliferative activity against human SF295 cells after 72 hrs by ViaLight assay

SF-539 = assay: cells; details: Homo sapiens, SF-539, 72 h
Description: Antiproliferative activity against human SF539 cells after 72 hrs by ViaLight assay

U-251 = assay: cells; details: Homo sapiens, U-251, 72 h
Description: Antiproliferative activity against human U251 cells after 72 hrs by ViaLight assay

Malme-3M = assay: cells; details: Homo sapiens, 72 h
Description: Antiproliferative activity against human MALME-3M cells after 72 hrs by ViaLight assay

SK-MEL-2 = assay: cells; details: Homo sapiens, SK-MEL-2, 72 h
Description: Antiproliferative activity against human SK-MEL-2 cells after 72 hrs by ViaLight assay

SK-MEL-5 = assay: cells; details: Homo sapiens, SK-MEL-5, 72 h
Description: Antiproliferative activity against human SK-MEL-5 cells after 72 hrs by ViaLight assay

OVCAR-4 = assay: cells; details: Homo sapiens, OVCAR-4, 72 h
Description: Antiproliferative activity against human OVCAR4 cells after 72 hrs by ViaLight assay

OVCAR-5 = assay: cells; details: Homo sapiens, OVCAR-5, 72 h
Description: Antiproliferative activity against human OVCAR5 cells after 72 hrs by ViaLight assay

SK-OV-3 = assay: cells; details: Homo sapiens, SK-OV-3, 72 h
Description: Antiproliferative activity against human SKOV3 cells after 72 hrs by ViaLight assay

ACHN = assay: cells; details: Homo sapiens, 72 h
Description: Antiproliferative activity against human ACHN cells after 72 hrs by ViaLight assay

PC-3 = assay: cells; details: Homo sapiens, PC-3, 72 h
Description: Antiproliferative activity against human PC3 cells after 72 hrs by ViaLight assay

MCF7 = assay: cells; details: Homo sapiens, MCF7, 72 h
Description: Antiproliferative activity against human MCF7 cells after 72 hrs by ViaLight assay

MDA-MB-231 = assay: cells; details: Homo sapiens, MDA-MB-231, 72 h
Description: Antiproliferative activity against human MDA-MB-231 cells after 72 hrs by ViaLight assay

MDA-MB-468 = assay: cells; details: Homo sapiens, MDA-MB-468, 72 h
Description: Antiproliferative activity against human MDA-MB-468 cells after 72 hrs by ViaLight assay

Sequence of Cyclin-dependent kinase 7/ cyclin H (P51946 whole entry): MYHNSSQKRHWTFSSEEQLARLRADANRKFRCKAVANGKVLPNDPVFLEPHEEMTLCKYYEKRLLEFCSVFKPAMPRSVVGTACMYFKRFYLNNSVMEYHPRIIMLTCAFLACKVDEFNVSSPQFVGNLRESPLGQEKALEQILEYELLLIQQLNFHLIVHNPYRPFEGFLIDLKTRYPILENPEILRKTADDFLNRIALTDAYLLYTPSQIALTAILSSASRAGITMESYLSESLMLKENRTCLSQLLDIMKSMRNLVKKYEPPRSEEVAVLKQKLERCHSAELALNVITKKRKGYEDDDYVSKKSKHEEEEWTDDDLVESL
Sequence of Cyclin-dependent kinase 7/ cyclin H (P50613 whole entry): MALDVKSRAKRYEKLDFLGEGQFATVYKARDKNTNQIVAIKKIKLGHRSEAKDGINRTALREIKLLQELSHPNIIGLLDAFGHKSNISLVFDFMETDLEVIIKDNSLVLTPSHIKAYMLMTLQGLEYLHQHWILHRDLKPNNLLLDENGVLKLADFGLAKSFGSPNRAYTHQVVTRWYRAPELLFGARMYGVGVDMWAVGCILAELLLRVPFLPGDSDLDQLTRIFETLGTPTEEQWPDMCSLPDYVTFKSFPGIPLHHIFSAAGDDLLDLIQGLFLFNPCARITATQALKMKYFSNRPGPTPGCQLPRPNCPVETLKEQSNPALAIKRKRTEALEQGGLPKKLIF
Sequence of Cyclin-dependent kinase 5/CDK5 activator 1 (Q00535 whole entry): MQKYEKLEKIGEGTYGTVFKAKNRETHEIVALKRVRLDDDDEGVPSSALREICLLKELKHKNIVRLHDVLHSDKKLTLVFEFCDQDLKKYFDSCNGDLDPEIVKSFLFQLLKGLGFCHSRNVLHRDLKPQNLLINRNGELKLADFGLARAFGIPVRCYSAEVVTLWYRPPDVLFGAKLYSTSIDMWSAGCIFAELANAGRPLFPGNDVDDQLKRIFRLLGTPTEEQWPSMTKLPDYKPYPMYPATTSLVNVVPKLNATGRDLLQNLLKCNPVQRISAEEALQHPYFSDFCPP
Sequence of Cyclin-dependent kinase 5/CDK5 activator 1 (Q15078 whole entry, further chain): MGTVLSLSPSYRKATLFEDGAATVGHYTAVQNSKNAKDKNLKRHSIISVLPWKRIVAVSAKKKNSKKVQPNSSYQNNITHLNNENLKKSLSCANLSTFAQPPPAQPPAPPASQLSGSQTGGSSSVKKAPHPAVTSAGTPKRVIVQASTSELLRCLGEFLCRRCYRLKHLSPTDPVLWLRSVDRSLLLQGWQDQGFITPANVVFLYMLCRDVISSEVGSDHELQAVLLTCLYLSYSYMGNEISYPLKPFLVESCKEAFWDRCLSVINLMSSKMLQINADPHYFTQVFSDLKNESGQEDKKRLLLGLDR

CC[C@H](CO)Nc1nc(NCc2ccccc2)n2ncc(C(C)C)c2n1
IC50 [1]: 0.07 µM
IC50 [2]: 0.5 µM
IC50 (SH-SY5Y): 2.7 µM
IC50 (HEK293): 7.6 µM
GI50 (SN12C; read-out: GI50): 2.41 µM
CC50 (SN12C; read-out: LC50 (the source's name)): 58.1 µM
TGI (SN12C; read-out: TGI): 14.4 µM
GI50 (SN12C; read-out: pGI50 (converted)): 3.02 µM
CC50 (SN12C; read-out: pLC50 (the source's name) (converted)): 57.5 µM
TGI (SN12C; read-out: pTGI (converted)): 14.5 µM
Activity (Raji): Dose-dependent effect
GI50 (MOLT-4): 2.18 µM
TGI (MOLT-4): 9.45 µM
CC50 (MOLT-4; read-out: LC50): > 100 µM
GI50 (MOLT-4; read-out: pGI50 (converted)): 2.19 µM
CC50 (MOLT-4; read-out: pLC50 (converted)): 100 µM
TGI (MOLT-4; read-out: pTGI): 9.55 µM
GI50 (SR): 0.25 µM
TGI (SR): 1.59 µM
CC50 (SR; read-out: LC50): > 100 µM
GI50 (SR; read-out: pGI50 (converted)): 2.51 µM
CC50 (SR; read-out: pLC50 (converted)): 100 µM
TGI (SR; read-out: pTGI): 1.58 µM
GI50 (A549): 1.58 µM
TGI (A549): 41.4 µM
CC50 (A549; read-out: LC50): > 100 µM
GI50 (A549; read-out: pGI50 (converted)): 2.51 µM
CC50 (A549; read-out: pLC50 (converted)): 100 µM
TGI (A549; read-out: pTGI): 41.7 µM
GI50 (EKVX): 2.41 µM
TGI (EKVX): 9.13 µM
GI50 (EKVX; read-out: pGI50 (converted)): 2.4 µM
TGI (EKVX; read-out: pTGI): 9.12 µM
GI50 (HOP-92): 1.67 µM
TGI (HOP-92): 7.1 µM
CC50 (HOP-92; read-out: LC50): > 100 µM
GI50 (HOP-92; read-out: pGI50 (converted)): 1.66 µM
CC50 (HOP-92; read-out: pLC50 (converted)): 100 µM
TGI (HOP-92; read-out: pTGI): 7.08 µM
GI50 (NCI-H226): 1.84 µM
TGI (NCI-H226): 10.1 µM
CC50 (NCI-H226; read-out: LC50): > 100 µM
GI50 (NCI-H226; read-out: pGI50 (converted)): 1.86 µM
CC50 (NCI-H226; read-out: pLC50 (converted)): 100 µM
TGI (NCI-H226; read-out: pTGI): 10.5 µM
GI50 (NCI-H322M): 1.86 µM
TGI (NCI-H322M): 8.92 µM
CC50 (NCI-H322M; read-out: LC50): > 100 µM
GI50 (NCI-H322M; read-out: pGI50 (converted)): 1.86 µM
CC50 (NCI-H322M; read-out: pLC50 (converted)): 100 µM
TGI (NCI-H322M; read-out: pTGI): 8.91 µM
GI50 (HCC 2998): 1.2 µM
TGI (HCC 2998): 3.27 µM
CC50 (HCC 2998; read-out: LC50): 8.96 µM
GI50 (HCC 2998; read-out: pGI50 (converted)): 1.2 µM
CC50 (HCC 2998; read-out: pLC50 (converted)): 8.71 µM
TGI (HCC 2998; read-out: pTGI): 3.24 µM
GI50 (HCT-116): 0.51 µM
TGI (HCT-116): 15 µM
CC50 (HCT-116; read-out: LC50): > 100 µM
GI50 (HCT-116; read-out: pGI50 (converted)): 0.513 µM
CC50 (HCT-116; read-out: pLC50 (converted)): 100 µM
TGI (HCT-116; read-out: pTGI): 15.1 µM
GI50 (KM12): 0.71 µM
TGI (KM12): 2.79 µM
CC50 (KM12; read-out: LC50): 9.3 µM
GI50 (KM12; read-out: pGI50 (converted)): 0.708 µM
CC50 (KM12; read-out: pLC50 (converted)): 9.77 µM
TGI (KM12; read-out: pTGI): 2.82 µM
GI50 (SF-295): 0.81 µM
TGI (SF-295): 4.74 µM
GI50 (SF-295; read-out: pGI50 (converted)): 0.813 µM
TGI (SF-295; read-out: pTGI): 4.79 µM
GI50 (SF-539): 1.22 µM
TGI (SF-539): 3.62 µM
CC50 (SF-539; read-out: LC50): 11.9 µM
GI50 (SF-539; read-out: pGI50 (converted)): 1.23 µM
CC50 (SF-539; read-out: pLC50 (converted)): 11.7 µM
TGI (SF-539; read-out: pTGI): 3.63 µM
GI50 (U-251): 1.4 µM
TGI (U-251): 10.5 µM
CC50 (U-251; read-out: LC50): > 100 µM
GI50 (U-251; read-out: pGI50 (converted)): 1.41 µM
CC50 (U-251; read-out: pLC50 (converted)): 100 µM
TGI (U-251; read-out: pTGI): 10.5 µM
GI50 (Malme-3M): 2.6 µM
TGI (Malme-3M): 6.99 µM
CC50 (Malme-3M; read-out: LC50): 43.5 µM
GI50 (Malme-3M; read-out: pGI50 (converted)): 2.63 µM
CC50 (Malme-3M; read-out: pLC50 (converted)): 43.7 µM
TGI (Malme-3M; read-out: pTGI): 6.92 µM
GI50 (SK-MEL-2): 1.47 µM
TGI (SK-MEL-2): 6 µM
CC50 (SK-MEL-2; read-out: LC50): > 100 µM
GI50 (SK-MEL-2; read-out: pGI50 (converted)): 1.48 µM
CC50 (SK-MEL-2; read-out: pLC50 (converted)): 100 µM
TGI (SK-MEL-2; read-out: pTGI): 6.03 µM
GI50 (SK-MEL-5): 1.78 µM
TGI (SK-MEL-5): 4.96 µM
CC50 (SK-MEL-5; read-out: LC50): 17.4 µM
GI50 (SK-MEL-5; read-out: pGI50 (converted)): 1.78 µM
CC50 (SK-MEL-5; read-out: pLC50 (converted)): 17.4 µM
TGI (SK-MEL-5; read-out: pTGI): 5.01 µM
GI50 (OVCAR-4): 2.57 µM
TGI (OVCAR-4): 37 µM
CC50 (OVCAR-4; read-out: LC50): > 100 µM
GI50 (OVCAR-4; read-out: pGI50 (converted)): 2.63 µM
CC50 (OVCAR-4; read-out: pLC50 (converted)): 100 µM
TGI (OVCAR-4; read-out: pTGI): 0.372 µM
GI50 (OVCAR-5): 1.85 µM
TGI (OVCAR-5): 15 µM
CC50 (OVCAR-5; read-out: LC50): > 100 µM
GI50 (OVCAR-5; read-out: pGI50 (converted)): 1.78 µM
CC50 (OVCAR-5; read-out: pLC50 (converted)): 100 µM
TGI (OVCAR-5; read-out: pTGI): 15.1 µM
GI50 (SK-OV-3): 5.55 µM
TGI (SK-OV-3): 40.2 µM
CC50 (SK-OV-3; read-out: LC50): > 100 µM
GI50 (SK-OV-3; read-out: pGI50 (converted)): 5.5 µM
CC50 (SK-OV-3; read-out: pLC50 (converted)): 100 µM
TGI (SK-OV-3; read-out: pTGI): 39.8 µM
GI50 (ACHN): 0.81 µM
TGI (ACHN): 10.7 µM
CC50 (ACHN; read-out: LC50): 49.1 µM
GI50 (ACHN; read-out: pGI50 (converted)): 0.813 µM
CC50 (ACHN; read-out: pLC50 (converted)): 49 µM
TGI (ACHN; read-out: pTGI): 10.7 µM
GI50 (PC-3): 0.93 µM
TGI (PC-3): 12.3 µM
CC50 (PC-3; read-out: LC50): > 100 µM
GI50 (PC-3; read-out: pGI50 (converted)): 0.117 µM
CC50 (PC-3; read-out: pLC50 (converted)): 100 µM
TGI (PC-3; read-out: pTGI): 0.123 µM
GI50 (MCF7): 0.59 µM
TGI (MCF7): 7.99 µM
CC50 (MCF7; read-out: LC50): > 100 µM
GI50 (MCF7; read-out: pGI50 (converted)): 0.589 µM
CC50 (MCF7; read-out: pLC50 (converted)): 100 µM
TGI (MCF7; read-out: pTGI): 7.94 µM
GI50 (MDA-MB-231): 2.37 µM
TGI (MDA-MB-231): 9.47 µM
CC50 (MDA-MB-231; read-out: LC50): > 100 µM
GI50 (MDA-MB-231; read-out: pGI50 (converted)): 2.4 µM
CC50 (MDA-MB-231; read-out: pLC50 (converted)): 100 µM
TGI (MDA-MB-231; read-out: pTGI): 9.55 µM
GI50 (MDA-MB-468): 1.88 µM
TGI (MDA-MB-468): 5.19 µM
CC50 (MDA-MB-468; read-out: LC50): 63.5 µM
GI50 (MDA-MB-468; read-out: pGI50 (converted)): 1.86 µM
CC50 (MDA-MB-468; read-out: pLC50 (converted)): 63.1 µM
TGI (MDA-MB-468; read-out: pTGI): 5.25 µM
